In test [1] the test system is male BDF1 mice. Put plainly: Lifespan study with ambroxol as chow supplement. The class given is in vivo, mouse. How it is done: Group 1 represents control animals that were not administered ambroxol; Group 2 represents animals administered 50 mg/kg (body weight) of ambroxol daily as a chow supplement, starting at 2 months of age
Weaned male BDF1 mice were raised from pups, housed 1-4 animals per cage and fed Teklad 7013 NIH-31 rodent chow and water ad libitum. At 2 months of age, the mice were divided into two roughly equal groups of 22-25 animals. One group continued to be fed the Teklad chow as before (control); the other group was switched to Teklad chow formulated with ambroxol at 300 mg per kg of chow. This formulation was designed, based on the average ad libitum chow consumption of an adult male BDF1 mouse, to deliver 50 mg/kg/day (based on body mass) to each mouse in the treated group. Mice were maintained on this diet until they died naturally or until they reached 16 months of age, at which time the experiment ended. During the course of the experiment all mice were periodically removed from their cages and handled in the course of subjecting them to various sensorimotor, cognitive, and/or behavioral tests.
Group 1 represents control animals that were not administered ambroxol; Group 2 represents animals administered 50 mg/kg of ambroxol daily as a chow supplement, starting at 2 months of age.

In test [2] the test system is mice. The test can be described thus: Novel place recognition cognitive acuity test. The class given is in vivo, mouse. The note with it: tested at 7 months, FIG. 2. How it is done:
FIG. 2. Mice were tested at age 7 months for novel place recognition. This is a cognitive test to measure short term working memory, involving recognition of a familiar object found in an unfamiliar place (see Magen et al (2012) Eur. J. Neurosci. 35: 870-882; Magen and Chesselet (2011) J. Parkinson's Disease 1: 217-227). A Discrimination Index (DI)=(tnovel−tfamiliar)/(tnovel+tfamiliar) is used to assess the time spent exploring near the object in a novel place (“tnovel”) vs. the total exploration time overall. Discrimination Index scores greater than zero are considered to indicate good place recognition memory. In this experiment, three groups of mice, with at least 13 mice in each group, were given a cognitive acuity test at 7 months.

Test [3] has as its system NIH3T3 cells. Put plainly: Basal macroautophagy, mCherry-GFP-LC3 tandem reporter, high content microscopy. Type of test: cell-based, mouse. The note with it: 24 h in complete media; autophagic vacuoles, autophagosomes, autolysosomes; FIG. 3. As for the experimental part:
FIG. 3. Effect of Ambroxol on basal macroautophagy in mouse cells. Mouse fibroblasts in culture (NIH3T3 cells) expressing the tandem reporter mCherry-GFP-LC3 were exposed to the indicated concentrations of Ambroxol for 24 h in complete media. Panel A. Schematic of the autophagic compartments analyzed. Panels B-D. Number of autophagic vacuoles (AV) (Panel B); autophagosomes (APG) (Panel C); and autolysosomes (AUT) (Panel D). All values are mean+s.e.m. and quantifications were done in at least 2,500 cells per condition in three different experiments using high content microscopy. Differences with untreated (0 uM ambroxol) are significant for *p<0.05 **p<0.01 and ***p<0.001.
Mouse fibroblasts (NIH3T3) were obtained from the American Type Culture Collection (ATCC). […] The number of particles/puncta per cell was quantified using the ‘particle identifier’ function in the cytosolic region after thresholding in non-saturated images. In all cases, focal plane thickness was set at 0.17 μm and sections with maximal nucleus diameter were selected for quantification. […] Macroautophagy activity in intact cells was measured upon transduction with lentivirus carrying the mCherry-GFP-LC3 tandem construct. […] Cells were plated on glass-bottom 96 well plates and fluorescence was read in both channels. […] Autophagic flux was determined as the conversion of autophagosomes (yellow) to autolysosomes (red only puncta).

The source of these data is US11583543B2, “Ambroxol to improve and/or extend healthspan, lifespan and/or mental acuity” (NeueRe, LLC, priority 2017, dated 2023).

Regarding `Nc1c(Br)cc(Br)cc1CN[C@H]1CC[C@H](O)CC1` [Ambroxol, trans-4-(2-amino-3,5-dibromobenzylamino) cyclohexanol], in test [1] (50 mg/kg daily as chow supplement from 2 months of age, until 16 months, vs control (Group 1), FIG. 1), the lifespan entry is on record as “increase lifespan”. The “healthspan (health of surviving animals when sacrificed)” value in test [1] (Group 2, 50 mg/kg daily, vs Group 1 control, preliminary data) is given as “at least as healthy”. Further, the cognitive acuity entry was “best cognitive acuity results” in test [2] (High Dose group 150 mg/kg/day); “results in between the Control Group and the “High Dose” Group” in test [2] (Low Dose group 50 mg/kg/day). The macroautophagy entry in test [3] was “Induces Macroautophagy”.
